From patent EP4722207A1, “OXOISOINDOLINYL-SUBSTITUTED TETRAHYDROPYRIMIDINEDIONE DERIVATIVE AND USE THEREOF” (Gluetacs Therapeutics (Shanghai) Co., Ltd., priority 2023, dated 2024)

Experiments:
CK1α = target: T1, CK1α (Homo sapiens, UniProt P48729+Q96SW2); experiment: Western-blot assay, substrate protein degradation in hPBMCs: CK1α; format: cell-based; settings: for CK1α substrate protein remaining %: compounds at 50 nM and 500 nM, 24 hours; for substrate protein remaining % CK1α: 24 hours of compound treatment, 50 nM and 500 nM
T1 construct: effects of the compounds of the present disclosure on the expression of target proteins in cells; endogenous in cells; host or cells: human PBMCs (hPBMCs)

MM.1S = experiment: Cell viability assay (CellTiter-Meiluncell Luminescent), tumor cell proliferation, MM.1S; settings: Homo sapiens, MM1.S, 96 h; for IC50: read-out: inhibitory activity (IC50, nM) against tumor cells proliferation, MM.1S; for inhibition at 0.01 µM: read-out: Inhibition Rate at 10 nM (%); for inhibition at 0.5 µM: read-out: Inhibition Rate at 500 nM (%)
WEE1 = target: T2, WEE1 (Homo sapiens, UniProt P30291+Q96SW2); experiment: Western-blot assay, substrate protein degradation in hPBMCs: WEE1; format: cell-based; settings: for WEE1 substrate protein remaining %: compounds at 50 nM and 500 nM, 24 hours; for substrate protein remaining % WEE1: 24 hours of compound treatment, 50 nM and 500 nM
T2 construct: effects of the compounds of the present disclosure on the expression of target proteins in cells; endogenous in cells; host or cells: human PBMCs (hPBMCs)

IKZF3 = target: T3, IKZF3 (Homo sapiens, UniProt Q96SW2+Q9UKT9); experiment: Western-blot assay, substrate protein degradation in hPBMCs: IKZF3; format: cell-based; settings: for IKZF3 substrate protein remaining %: compounds at 50 nM and 500 nM, 24 hours; for substrate protein remaining % IKZF3: 24 hours of compound treatment, 50 nM and 500 nM
T3 construct: effects of the compounds of the present disclosure on the expression of target proteins in cells; endogenous in cells; host or cells: human PBMCs (hPBMCs)

IKZF1 = target: T4, IKZF1 (Homo sapiens, UniProt Q13422+Q96SW2); experiment: Western-blot assay, substrate protein degradation in hPBMCs: IKZF1; format: cell-based; settings: for IKZF1 substrate protein remaining %: compounds at 50 nM and 500 nM, 24 hours; for substrate protein remaining % IKZF1: 24 hours of compound treatment, 50 nM and 500 nM
T4 construct: effects of the compounds of the present disclosure on the expression of target proteins in cells; endogenous in cells; host or cells: human PBMCs (hPBMCs)

IKZF2 = target: T5, IKZF2 (Homo sapiens, UniProt Q96SW2+Q9UKS7); experiment: Western-blot assay, substrate protein degradation in hPBMCs: IKZF2; format: cell-based; settings: for IKZF2 substrate protein remaining %: compounds at 50 nM and 500 nM, 24 hours; for substrate protein remaining % IKZF2: 24 hours of compound treatment, 50 nM and 500 nM
T5 construct: effects of the compounds of the present disclosure on the expression of target proteins in cells; endogenous in cells; host or cells: human PBMCs (hPBMCs)

GSPT1 = target: T6, GSPT1 (Homo sapiens, UniProt P15170+Q96SW2); experiment: Western-blot assay, substrate protein degradation in hPBMCs: GSPT1; format: cell-based; settings: for GSPT1 substrate protein remaining %: compounds at 50 nM and 500 nM, 24 hours; for substrate protein remaining % GSPT1: 24 hours of compound treatment, 50 nM and 500 nM
T6 construct: effects of the compounds of the present disclosure on the expression of target proteins in cells; endogenous in cells; host or cells: human PBMCs (hPBMCs)

H292 = experiment: Cell viability assay (CellTiter-Meiluncell Luminescent), tumor cell proliferation, H292; settings: Homo sapiens, NCI-H292, 96 h; for inhibition at 0.01 µM: read-out: Inhibition Rate at 10 nM (%); for inhibition at 0.5 µM: read-out: Inhibition Rate at 500 nM (%)

T5 sequence (Q9UKS7 whole entry): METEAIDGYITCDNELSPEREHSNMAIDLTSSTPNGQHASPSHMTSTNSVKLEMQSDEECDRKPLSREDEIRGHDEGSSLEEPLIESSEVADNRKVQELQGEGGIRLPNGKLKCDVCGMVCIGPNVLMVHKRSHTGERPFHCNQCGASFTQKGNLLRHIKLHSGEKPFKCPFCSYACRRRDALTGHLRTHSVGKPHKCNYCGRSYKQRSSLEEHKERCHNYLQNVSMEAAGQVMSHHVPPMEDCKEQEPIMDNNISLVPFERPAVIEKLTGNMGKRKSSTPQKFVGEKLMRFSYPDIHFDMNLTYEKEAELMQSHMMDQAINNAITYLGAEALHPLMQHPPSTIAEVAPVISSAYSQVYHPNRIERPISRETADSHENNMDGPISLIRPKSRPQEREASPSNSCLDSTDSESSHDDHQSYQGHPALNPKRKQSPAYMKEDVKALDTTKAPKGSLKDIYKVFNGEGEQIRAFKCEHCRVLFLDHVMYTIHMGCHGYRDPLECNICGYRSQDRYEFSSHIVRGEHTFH
T5 sequence (Q96SW2 whole entry): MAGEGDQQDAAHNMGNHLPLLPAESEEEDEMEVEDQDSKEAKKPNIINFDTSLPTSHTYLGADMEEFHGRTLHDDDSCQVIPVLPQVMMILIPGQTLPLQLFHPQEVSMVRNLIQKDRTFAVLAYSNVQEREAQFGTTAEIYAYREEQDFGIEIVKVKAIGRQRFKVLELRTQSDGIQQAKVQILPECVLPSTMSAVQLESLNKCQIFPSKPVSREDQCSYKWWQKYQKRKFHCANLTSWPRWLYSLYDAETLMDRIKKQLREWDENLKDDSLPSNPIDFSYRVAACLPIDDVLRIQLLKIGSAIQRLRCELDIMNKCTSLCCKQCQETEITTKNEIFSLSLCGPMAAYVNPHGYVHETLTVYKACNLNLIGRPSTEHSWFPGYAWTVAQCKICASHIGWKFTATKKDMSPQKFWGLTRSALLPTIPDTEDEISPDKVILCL
T5 sequence (Q16531 whole entry partner): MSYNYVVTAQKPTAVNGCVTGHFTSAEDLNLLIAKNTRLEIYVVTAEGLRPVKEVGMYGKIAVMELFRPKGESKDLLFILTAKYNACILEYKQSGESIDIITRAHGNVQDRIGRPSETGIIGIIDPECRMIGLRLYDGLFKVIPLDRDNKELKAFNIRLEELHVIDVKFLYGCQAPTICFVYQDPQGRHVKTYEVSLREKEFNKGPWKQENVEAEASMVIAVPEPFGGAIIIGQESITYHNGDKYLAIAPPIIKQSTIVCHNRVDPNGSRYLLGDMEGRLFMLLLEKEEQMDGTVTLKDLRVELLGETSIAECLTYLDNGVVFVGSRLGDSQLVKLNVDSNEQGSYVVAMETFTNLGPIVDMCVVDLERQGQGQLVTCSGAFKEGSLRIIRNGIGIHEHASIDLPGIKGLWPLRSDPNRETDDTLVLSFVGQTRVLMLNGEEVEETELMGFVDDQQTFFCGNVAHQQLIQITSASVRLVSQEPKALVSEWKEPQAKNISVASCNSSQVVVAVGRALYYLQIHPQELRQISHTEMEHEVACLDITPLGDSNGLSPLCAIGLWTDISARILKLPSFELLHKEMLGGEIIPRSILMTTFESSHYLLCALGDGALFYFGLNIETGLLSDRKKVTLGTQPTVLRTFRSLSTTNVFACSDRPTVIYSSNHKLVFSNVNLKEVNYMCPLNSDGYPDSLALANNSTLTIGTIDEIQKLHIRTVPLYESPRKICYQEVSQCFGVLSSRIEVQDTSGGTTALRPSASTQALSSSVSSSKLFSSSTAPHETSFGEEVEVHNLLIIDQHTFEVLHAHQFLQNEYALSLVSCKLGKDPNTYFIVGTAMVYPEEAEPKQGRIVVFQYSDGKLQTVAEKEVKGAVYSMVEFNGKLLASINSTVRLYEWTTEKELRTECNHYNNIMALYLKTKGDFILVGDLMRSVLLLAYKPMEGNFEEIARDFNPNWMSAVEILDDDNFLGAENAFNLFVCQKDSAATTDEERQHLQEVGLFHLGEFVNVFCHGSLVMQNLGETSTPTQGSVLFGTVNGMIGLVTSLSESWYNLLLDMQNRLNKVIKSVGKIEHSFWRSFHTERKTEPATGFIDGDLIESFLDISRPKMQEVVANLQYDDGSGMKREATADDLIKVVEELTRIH
T2 sequence (P30291 whole entry): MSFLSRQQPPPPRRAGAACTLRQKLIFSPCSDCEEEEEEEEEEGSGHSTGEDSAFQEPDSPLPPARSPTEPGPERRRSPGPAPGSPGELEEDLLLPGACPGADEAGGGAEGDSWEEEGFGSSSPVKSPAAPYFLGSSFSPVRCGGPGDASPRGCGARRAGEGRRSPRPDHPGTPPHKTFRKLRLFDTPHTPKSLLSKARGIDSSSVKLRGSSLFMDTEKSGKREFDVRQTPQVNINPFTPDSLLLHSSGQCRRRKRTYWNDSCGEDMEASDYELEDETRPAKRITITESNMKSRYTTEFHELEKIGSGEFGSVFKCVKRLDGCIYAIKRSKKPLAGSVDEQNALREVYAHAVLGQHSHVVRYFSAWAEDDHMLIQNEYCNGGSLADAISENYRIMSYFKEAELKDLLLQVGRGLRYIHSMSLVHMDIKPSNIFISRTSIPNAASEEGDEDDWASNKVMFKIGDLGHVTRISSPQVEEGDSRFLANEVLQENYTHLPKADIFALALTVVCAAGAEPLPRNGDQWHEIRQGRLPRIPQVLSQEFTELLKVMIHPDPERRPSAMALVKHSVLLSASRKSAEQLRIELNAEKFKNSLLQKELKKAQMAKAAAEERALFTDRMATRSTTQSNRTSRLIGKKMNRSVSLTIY
T2 sequence (Q96SW2 whole entry): as the sequence (Q96SW2 whole entry) above
T2 sequence (Q16531 whole entry partner): as the sequence (Q16531 whole entry partner) above
T1 sequence (P48729 whole entry): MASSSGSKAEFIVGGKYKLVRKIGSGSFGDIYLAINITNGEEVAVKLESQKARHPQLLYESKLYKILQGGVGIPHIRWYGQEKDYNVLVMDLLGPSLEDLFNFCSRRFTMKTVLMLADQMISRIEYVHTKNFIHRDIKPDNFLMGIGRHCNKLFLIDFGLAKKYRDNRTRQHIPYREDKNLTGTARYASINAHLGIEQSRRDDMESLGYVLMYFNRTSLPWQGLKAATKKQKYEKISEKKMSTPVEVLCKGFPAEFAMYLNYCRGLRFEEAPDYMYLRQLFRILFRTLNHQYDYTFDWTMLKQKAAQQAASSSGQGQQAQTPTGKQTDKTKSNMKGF
T1 sequence (Q96SW2 whole entry): as the sequence (Q96SW2 whole entry) above
T1 sequence (Q16531 whole entry partner): as the sequence (Q16531 whole entry partner) above
T3 sequence (Q9UKT9 whole entry): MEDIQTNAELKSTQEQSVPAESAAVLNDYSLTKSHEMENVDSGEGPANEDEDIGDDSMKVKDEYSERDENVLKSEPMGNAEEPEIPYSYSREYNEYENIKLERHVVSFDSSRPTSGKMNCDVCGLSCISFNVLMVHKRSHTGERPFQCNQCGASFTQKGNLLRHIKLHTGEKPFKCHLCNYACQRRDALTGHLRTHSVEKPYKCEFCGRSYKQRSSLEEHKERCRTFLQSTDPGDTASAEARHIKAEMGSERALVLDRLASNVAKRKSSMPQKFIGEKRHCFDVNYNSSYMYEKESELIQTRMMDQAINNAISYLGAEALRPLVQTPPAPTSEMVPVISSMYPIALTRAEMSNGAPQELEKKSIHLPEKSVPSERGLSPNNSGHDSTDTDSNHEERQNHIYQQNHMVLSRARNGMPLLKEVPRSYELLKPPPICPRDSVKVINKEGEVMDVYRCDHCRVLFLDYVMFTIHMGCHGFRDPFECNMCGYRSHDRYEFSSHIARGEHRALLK
T3 sequence (Q96SW2 whole entry): as the sequence (Q96SW2 whole entry) above
T3 sequence (Q16531 whole entry partner): as the sequence (Q16531 whole entry partner) above
T6 sequence (P15170 whole entry): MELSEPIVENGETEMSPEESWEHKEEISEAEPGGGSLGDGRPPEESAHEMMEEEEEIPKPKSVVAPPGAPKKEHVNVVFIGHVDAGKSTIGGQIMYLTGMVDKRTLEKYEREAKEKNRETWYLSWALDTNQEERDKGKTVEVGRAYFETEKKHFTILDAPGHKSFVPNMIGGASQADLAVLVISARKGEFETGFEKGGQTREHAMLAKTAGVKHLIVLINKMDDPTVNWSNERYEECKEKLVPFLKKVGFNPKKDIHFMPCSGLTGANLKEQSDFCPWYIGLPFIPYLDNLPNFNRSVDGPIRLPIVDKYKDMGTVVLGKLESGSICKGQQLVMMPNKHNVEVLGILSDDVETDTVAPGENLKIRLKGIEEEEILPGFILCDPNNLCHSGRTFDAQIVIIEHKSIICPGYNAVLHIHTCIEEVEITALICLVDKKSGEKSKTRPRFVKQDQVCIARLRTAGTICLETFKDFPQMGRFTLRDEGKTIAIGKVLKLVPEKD
T6 sequence (Q96SW2 whole entry): as the sequence (Q96SW2 whole entry) above
T6 sequence (Q16531 whole entry partner): as the sequence (Q16531 whole entry partner) above

| SMILES | CK1α substrate protein remaining % (CK1α) | IC50 (MM.1S) | WEE1 substrate protein remaining % (WEE1) | IKZF3 substrate protein remaining % (IKZF3) | IKZF1 substrate protein remaining % (IKZF1) | IKZF2 substrate protein remaining % (IKZF2) | GSPT1 substrate protein remaining % (GSPT1) | substrate protein remaining % CK1α (CK1α) | substrate protein remaining % WEE1 (WEE1) | substrate protein remaining % IKZF3 (IKZF3) | substrate protein remaining % IKZF1 (IKZF1) | substrate protein remaining % IKZF2 (IKZF2) | substrate protein remaining % GSPT1 (GSPT1) | inhibition at 0.01 µM (MM.1S) | inhibition at 0.5 µM (MM.1S) | inhibition at 0.01 µM (H292) | inhibition at 0.5 µM (H292) |
| --- | --- | --- | --- | --- | --- | --- | --- | --- | --- | --- | --- | --- | --- | --- | --- | --- | --- |
| O=C1CCN(N2Cc3cc(CN4CC(=C5CCOc6cc(F)ccc65)C4)ccc3C2=O)C(=O)N1 [GT-05168, 1-(5-((3-(7-fluorochroman-4-ylidene)azetidin-1-yl)methyl)-1-oxoisoindolin-2-yl)dihydropyrimidine-2,4(1H,3H)-dione] | B ("B" is defined as 80%< substrate protein remaining %≤ 100%) | 100 to 300 nM | B ("B" is defined as 80%< substrate protein remaining %≤ 100%) | A ("A" is defined as 0% ≤ substrate protein remaining % ≤ 80%) | B ("B" is defined as 80%< substrate protein remaining %≤ 100%) | B ("B" is defined as 80%< substrate protein remaining %≤ 100%) | A ("A" is defined as 0% ≤ substrate protein remaining % ≤ 80%) | – | – | – | – | – | – | – | – | – | – |
| O=C1CCN(N2Cc3cc(CN4CC(N5CCc6cc(F)ccc65)C4)ccc3C2=O)C(=O)N1 [GT-05169, 1-(5-((3-(5-fluoroindolin-1-yl)azetidin-1-yl)methyl)-1-oxoisoindolin-2-yl)dihydropyrimidine-2,4(1H,3H)-dione] | B ("B" is defined as 80%< substrate protein remaining %≤ 100%) | 100 to 300 nM | B ("B" is defined as 80%< substrate protein remaining %≤ 100%) | A ("A" is defined as 0% ≤ substrate protein remaining % ≤ 80%) | B ("B" is defined as 80%< substrate protein remaining %≤ 100%) | A ("A" is defined as 0% ≤ substrate protein remaining % ≤ 80%) | A ("A" is defined as 0% ≤ substrate protein remaining % ≤ 80%) | – | – | – | – | – | – | – | – | – | – |
| O=C1CCN(N2Cc3cc(CN4CC=C(c5nccc(Cl)c5Cl)CC4)ccc3C2=O)C(=O)N1 [GT-06392, 1-(5-((3,4-dichloro-3',6'-dihydro-[2,4'-bipyridin]-1'(2'H)-yl)methyl)-1-oxoisoindolin-2-yl)dihydropyrimidine-2,4(1H,3H)-dione] | A ("A" is defined as 0% ≤ substrate protein remaining % ≤ 80%) | 300 to 500 nM | A ("A" is defined as 0% ≤ substrate protein remaining % ≤ 80%) | A ("A" is defined as 0% ≤ substrate protein remaining % ≤ 80%) | B ("B" is defined as 80%< substrate protein remaining %≤ 100%) | A ("A" is defined as 0% ≤ substrate protein remaining % ≤ 80%) | A ("A" is defined as 0% ≤ substrate protein remaining % ≤ 80%) | – | – | – | – | – | – | – | – | – | – |
| O=C1CCN(N2Cc3cc(CN4CC=C(c5cncc(Cl)c5Cl)CC4)ccc3C2=O)C(=O)N1 [GT-06393, 1-(5-((4,5-dichloro-3',6'-dihydro-[3,4'-bipyridin]-1'(2'H)-yl)methyl)-1-oxoisoindolin-2-yl)dihydropyrimidine-2,4(1H,3H)-dione] | A ("A" is defined as 0% ≤ substrate protein remaining % ≤ 80%) | 500 to 1000 nM | A ("A" is defined as 0% ≤ substrate protein remaining % ≤ 80%) | A ("A" is defined as 0% ≤ substrate protein remaining % ≤ 80%) | B ("B" is defined as 80%< substrate protein remaining %≤ 100%) | A ("A" is defined as 0% ≤ substrate protein remaining % ≤ 80%) | A ("A" is defined as 0% ≤ substrate protein remaining % ≤ 80%) | – | – | – | – | – | – | – | – | – | – |
| CC1(C)CCC(CN2CC3CC(C2)N3Cc2ccc3c(c2)CN(N2CCC(=O)NC2=O)C3=O)=C(c2ccc(Cl)cc2)C1 [GT-06456, 1-(5-((3-((4'-chloro-5,5-dimethyl-3,4,5,6-tetrahydro-[1,1'-biphenyl]-2-yl)methyl)-3,6-diazabicyclo[3.1.1]heptan-6-yl)methyl)-1-oxoisoindolin-2-yl)dihydropyrimidine-2,4(1H,3H)-dione] | A ("A" is defined as 0% ≤ substrate protein remaining % ≤ 80%) | 100 to 300 nM | A ("A" is defined as 0% ≤ substrate protein remaining % ≤ 80%) | A ("A" is defined as 0% ≤ substrate protein remaining % ≤ 80%) | A ("A" is defined as 0% ≤ substrate protein remaining % ≤ 80%) | A ("A" is defined as 0% ≤ substrate protein remaining % ≤ 80%) | A ("A" is defined as 0% ≤ substrate protein remaining % ≤ 80%) | – | – | – | – | – | – | – | – | – | – |
| O=C1CCN(N2Cc3cc(CN4CCC(c5ccsc5)CC4)ccc3C2=O)C(=O)N1 [GT-07371, 1-(1-oxo-5-((4-(thiophen-3-yl)piperidin-1-yl)methyl)isoindolin-2-yl)dihydropyrimidine-2,4(1H,3H)-dione] | – | 500 to 1000 nM | – | – | – | – | – | B (80%< substrate protein remaining %≤ 100%) | B (80%< substrate protein remaining %≤ 100%) | A (0% ≤ substrate protein remaining % ≤ 80%) | B (80%< substrate protein remaining %≤ 100%) | B (80%< substrate protein remaining %≤ 100%) | A (0% ≤ substrate protein remaining % ≤ 80%) | – | – | – | – |
| Cc1ccc(C2CCN(Cc3ccc4c(c3)CN(N3CCC(=O)NC3=O)C4=O)CC2)s1 [GT-07425, 1-(5-((4-(5-methylthiophen-2-yl)piperidin-1-yl)methyl)-1-oxoisoindolin-2-yl)dihydropyrimidine-2,4(1H,3H)-dione] | – | 500 to 1000 nM | – | – | – | – | – | B (80%< substrate protein remaining %≤ 100%) | B (80%< substrate protein remaining %≤ 100%) | B (80%< substrate protein remaining %≤ 100%) | B (80%< substrate protein remaining %≤ 100%) | B (80%< substrate protein remaining %≤ 100%) | A (0% ≤ substrate protein remaining % ≤ 80%) | – | – | – | – |
| O=C1CCN(N2C(=O)c3ccc(CN4CC=C(c5ncnc6sc7c(c56)CCCC7)CC4)cc3C2=O)C(=O)N1 [GT-08433, 2-(2,4-dioxotetrahydropyrimidin-1(2H)-yl)-5-((4-(5,6,7,8-tetrahydrobenzo[4,5]thieno[2,3-d]pyrimidin-4-yl)-3,6-dihydropyridin-1(2H)-yl)methyl)isoindoline-1,3-dione] | – | – | – | – | – | – | – | A (0% ≤ substrate protein remaining % ≤ 80%) | B (80%< substrate protein remaining %≤ 100%) | A (0% ≤ substrate protein remaining % ≤ 80%) | B (80%< substrate protein remaining %≤ 100%) | B (80%< substrate protein remaining %≤ 100%) | A (0% ≤ substrate protein remaining % ≤ 80%) | 20 to 30% | 30 to 42% | 20 to 40% | 15 to 20% |
| O=C1CCN(N2Cc3cc(CN4CC=C(c5ncc6ccsc6n5)CC4)ccc3C2=O)C(=O)N1 [GT-08438, 1-(1-oxo-5-((4-(thieno[2,3-d]pyrimidin-2-yl)-3,6-dihydropyridin-1(2H)-yl)methyl)isoindolin-2-yl)dihydropyrimidine-2,4(1H,3H)-dione] | – | – | – | – | – | – | – | B (80%< substrate protein remaining %≤ 100%) | A (0% ≤ substrate protein remaining % ≤ 80%) | A (0% ≤ substrate protein remaining % ≤ 80%) | A (0% ≤ substrate protein remaining % ≤ 80%) | B (80%< substrate protein remaining %≤ 100%) | A (0% ≤ substrate protein remaining % ≤ 80%) | 20 to 30% | 80 to 100% | 20 to 40% | 10 to 15% |
| O=C1CCN(N2Cc3cc(CN4CCN(c5nc(N6CCOCC6)nc6ccsc56)CC4)ccc3C2=O)C(=O)N1 [GT-08446, 1-(5-((4-(2-morpholinothieno[3,2-d]pyrimidin-4-yl)piperazin-1-yl)methyl)-1-oxoisoindolin-2-yl)dihydropyrimidine-2,4(1H,3H)-dione] | – | – | – | – | – | – | – | B (80%< substrate protein remaining %≤ 100%) | B (80%< substrate protein remaining %≤ 100%) | A (0% ≤ substrate protein remaining % ≤ 80%) | B (80%< substrate protein remaining %≤ 100%) | B (80%< substrate protein remaining %≤ 100%) | A (0% ≤ substrate protein remaining % ≤ 80%) | 42 to 60% | 30 to 42% | 20 to 40% | 20 to 40% |
